Results on 16 compounds are retold here after patent publication US6949556B2, “Acylated 1,2,3,4-tetrahydronaphthyl amines and their use as pharmaceutical agents” (Aventis Pharma Deutschland GmbH, priority 2001, dated 2005).

This assay deals with eNOS promoter. Briefly: Activation of eNOS transcription (eNOS promoter firefly luciferase reporter). The conditions noted are these: EC50 of transcription induction ratio (TIR) vs compound concentration, determined graphically; stably transfected human endothelial cell line, 18 h incubation. The class given is cell-based. As to the method: Activation of eNOS transcription was measured as described in detail in Li et al. “Activation of protein kinase C alpha and/or epsilon enhances transcription of the human endothelial nitric oxide synthase gene”, Mol. Pharmacol. 1998; 53: 630-637. Briefly, a 3.5 kB long fragment 5′ of the starting codon of the eNOS gene was cloned, sequenced and cloned in firefly luciferase expression plasmids to monitor activation of the eNOS promoter by reporter gene activity. A human endothelial cell line stable transfected and expressing this promoter-reporter construct was used for compound testing. Cells were incubated for 18 h with compounds.
All compounds were dissolved in sterile DMSO. A final concentration of 0.5% DMSO in complete medium was allowed. Induction of reporter gene expression in these cells was measured using a standard luciferase assay system (Promega, Cat. No E150) according to the manufacturer's instructions. Luciferase induction in cells incubated with compounds were compared to those incubated with solvent alone. The ratio of both activities (transcription induction ratio, TIR) was plotted as a function of compound concentration. Typically, TIR values started at low concentrations at a ratio of 1, indicating no compound effect, and extended up to a maximum TIR value TIR(max) which indicates the increase of the eNOS transcription. EC50 values of transcription induction ratios as a function of compound concentration were determined graphically.
As for `O=C(N[C@@H]1CCc2ccccc2C1)c1cc2sccc2nc1C(F)(F)F` [Compound 47, 5-Trifluoromethyl-thieno[3,2-b]pyridine-6-carboxylic acid-N-(R)-(1,2,3,4-tetrahydro-naphthalen-2-yl)-amide], the EC50 is 35.2 µM.

Consider `O=C(N[C@@H]1CCc2ccccc2C1)c1ccc2cc[nH]c2c1` [Compound 48, 1H-Indole-6-carboxylic acid N-(R)-(1,2,3,4-tetrahydro-naphthalen-2-yl)-amide], for which the EC50 is 15.6 µM. Consider `O=C(N[C@@H]1CCc2ccccc2C1)c1ccc(C(F)(F)F)nc1` [Compound 50, N-(R)-1,2,3,4-Tetrahydro-naphthalen-2-yl-6-trifluoromethyl-nicotinamide], for which the EC50 was found to be 24.6 µM.

Consider `O=C(N[C@H]1CCc2ccccc2C1)c1ccc(C(F)(F)F)nc1` [Compound 51, N-(S)-1,2,3,4-Tetrahydro-naphthalen-2-yl-6-trifluoromethyl-nicotinamide], for which the EC50 was 1.6 µM.

For the compound `Cc1nc2cc(C(=O)N[C@@H]3CCc4ccccc4C3)ccc2[nH]1` [Compound 52, 2-Methyl-1H-benzoimidazole-5-carboxylic acid N-(R)-(1,2,3,4-tetrahydro-naphthalen-2-yl)-amide], the EC50 was determined as 24.4 µM. The same measure for `Cc1nc(C(F)(F)F)ccc1C(=O)N[C@@H]1CCc2ccccc2C1` [Compound 54, 2-Methyl-N-(R)-1,2,3,4-tetrahydro-naphthalen-2-yl-6-trifluoromethyl-nicotinamide]: 16.3 µM; for `Cc1nc(C(F)(F)F)ccc1C(=O)N[C@H]1CCc2ccccc2C1` [Compound 55, 2-Methyl-N-(S)-1,2,3,4-tetrahydro-naphthalen-2-yl-6-trifluoromethyl-nicotinamide]: 1.1 µM. On to `N#Cc1ccc(C(=O)N[C@@H]2CCc3ccccc3C2)cn1` [Compound 56, 6-Cyano-N-(R)-1,2,3,4-tetrahydro-naphthalen-2-yl-nicotinamide], for which the concentration for a half-maximal effect (EC50) is 2.75 µM. For `N#Cc1ccc(C(=O)N[C@H]2CCc3ccccc3C2)cn1` [Compound 57, 6-Cyano-N-(S)-1,2,3,4-tetrahydro-naphthalen-2-yl-nicotinamide], the EC50 amounted to 0.5 µM. Turning to `COc1ccc(-n2ncc(C(=O)N[C@@H]3CCc4ccccc4C3)c2C)cc1` [Compound 60, 1-(4-Methoxy-phenyl)-5-methyl-1H-pyrazole-4-carboxylic acid N-(R)-(1,2,3,4-tetrahydro-naphthalen-2-yl)-amide], the concentration for a half-maximal effect (EC50) came out at 4.12 µM. As for `O=C(N[C@@H]1CCc2ccccc2C1)c1cncc(-c2cccs2)c1` [Compound 62, N-(R)-1,2,3,4-Tetrahydro-naphthalen-2-yl-5-thiophen-2-yl-nicotinamide], the 50% effective concentration (EC50) was determined as 4.47 µM. In the case of `O=C(N[C@H]1CCc2ccccc2C1)c1cncc(-c2cccs2)c1` [Compound 63, N-(S)-1,2,3,4-Tetrahydro-naphthalen-2-yl-5-thiophen-2-yl-nicotinamide] it was 0.3 µM. For the compound `O=C(N[C@@H]1CCc2ccccc2C1)c1onc2ccccc12` [Compound 64, Benzo[c]isoxazole-3-carboxylic acid N-(R)-(1,2,3,4-tetrahydro-naphthalen-2-yl)-amide], the EC50 is 15.2 µM. On to `CCCc1c(C(=O)N[C@@H]2CCc3ccccc3C2)cnn1-c1cc(Cl)cc(Cl)c1` [Compound 66, 1-(3,5-Dichloro-phenyl)-5-propyl-1H-pyrazole-4-carboxylic acid N-(R)-(1,2,3,4-tetrahydro-naphthalen-2-yl)-amide], for which the EC50 was determined as 5.86 µM. As for `CCCc1c(C(=O)N[C@H]2CCc3ccccc3C2)cnn1-c1cc(Cl)cc(Cl)c1` [Compound 67, 1-(3,5-Dichloro-phenyl)-5-propyl-1H-pyrazole-4-carboxylic acid N-(S)-(1,2,3,4-tetrahydro-naphthalen-2-yl)-amide], the EC50 amounted to 23.5 µM. With `O=C(N[C@H]1CCc2ccccc2C1)c1ccncc1` [Compound 69, (S)-N-(1,2,3,4-Tetrahydro-naphthalen-2-yl)-isonicotinamide], the EC50 is 0.19 µM.
